This series in a line: solvent given as SMILES.

SMILES strings stand for the structures.

Take `CN(C)c1ccc(-c2ccc3n2[B-](F)(F)[N+]2=C(c4ccccc4)C=CC2=C3C(F)(F)F)cc1`: the emission maximum is listed as 756 nm (in C1COCCO1); 772 nm (in CC#N); 696 nm (in CCCCCC); 745 nm (in CCCCO); 728 nm (in CCCCOCCCC); 750 nm (in CCO). The emission maximum (in CCOC(C)=O) turned out to be 755 nm, the emission maximum (in CS(C)=O) was found to be 800 nm, the emission maximum (in Cc1ccccc1) came to 746 nm and the emission maximum (in ClC(Cl)(Cl)Cl) stood at 712 nm.

The compound `COC(=O)c1cc2c(cc3ccc4cccc5ccc2c3c45)[nH]1` had an emission maximum (in C1CCOC1) of 404 nm.

On to `N#Cc1cc(-c2ccc(/C=C/c3ccc(N(c4ccccc4)c4ccccc4)cc3)c(C#N)c2)ccc1/C=C/c1ccc(N(c2ccccc2)c2ccccc2)cc1`, for which the emission maximum (in ClCCl) is 541 nm.

Where the note is “in ClC(Cl)Cl”, `c1ccc(-c2nc(-c3ccc(N4CCCC4)cc3)cc(-c3ccc4ccccc4c3)n2)cc1` displayed an emission maximum of 498 nm.

In the case of `CCn1c2ccccc2c2cc(-c3cc(-c4ccc5c(c4)c4ccccc4n5CC)nc(N4CCCCC4)n3)ccc21`, the emission maximum (in C1CCOC1) came out at 408 nm; the emission maximum (in CCOC(C)=O) amounted to 409 nm; the emission maximum (in CN(C)C=O) turned out to be 417 nm; the emission maximum (in Cc1ccccc1) turned out to be 406 nm; the emission maximum (in ClCCl) turned out to be 414 nm.

In the case of `Cc1ccc(/C(C#N)=C/c2cc(/C=C(\C#N)c3ccc(C)cc3)c(-c3ccc(N(c4ccccc4)c4ccccc4)cc3)cc2-c2ccc(N(c3ccccc3)c3ccccc3)cc2)cc1`, the emission maximum runs as follows: (in C1CCCCC1) 453 nm; (in C1CCOC1) 538 nm; (in CCCCCC) 453 nm; (in CCOC(C)=O) 533 nm; (in Cc1ccccc1) 480 nm; (in ClC(Cl)Cl) 517 nm. Further, the emission maximum (in ClCCl) was 552 nm.

Where the note is “in O”, `Cn1ccc(-n2cncn2)nc1=O` gave an emission maximum of 366 nm.

Turning to `CCCCN(CCCC)c1ccc(C#Cc2cc(C#Cc3cc(C(F)(F)F)cc(C(F)(F)F)c3)c(C#Cc3cc(C(F)(F)F)cc(C(F)(F)F)c3)cc2C#Cc2ccc(N(CCCC)CCCC)cc2)cc1`, the emission maximum is reported as 556 nm (in ClCCl) and 506 nm (in c1ccccc1).

`COc1c2ccccc2c(OC)c2c(C#Cc3ccccc3)c3cc4ccccc4cc3c(C#Cc3ccccc3)c12` came in with an emission maximum (in ClCCl) of 718 nm.

Compound `CCCC1=Cc2nc1ccc1[nH]c(cc1CCC)c1nc(c(OC)cc3[nH]c2cc3CCC)C(CCC)=C1` gave an emission maximum (in Cc1ccccc1) of 688 nm.

`N[C@@H](Cn1nnc2cc(-c3ccc(N4CCOCC4)cc3)ccc21)C(=O)O` had an emission maximum (in CO) of 384 nm.

`c1ccc(-n2c(-c3c(-n4c5ccccc5c5ccccc54)cccc3-n3c4ccccc4c4ccccc43)nc3ccccc32)cc1` yielded an emission maximum (in C1CCOC1) of 418 nm.

As to `C[Si](C)(C)c1cc2c(cc3ccc4cccc5ccc2c3c45)[nH]1`, the emission maximum (in CCOC(C)=O) was found to be 406 nm.

As for `CC[C@H](C)COc1ccc(C2=C3C(C)=C(c4ccc5ccc6cccc7ccc4c5c67)C(C)=[N+]3[B-](F)(F)n3c(C)c(-c4ccc5ccc6cccc7ccc4c5c67)c(C)c32)cc1`, for the setting “in ClCCl”, the emission maximum was 585 nm.

For the compound `CC(C)(C)c1ccc2c(c1)c1cc(C(C)(C)C)ccc1n2-c1ccc(N(c2ccc(-c3ccc(-c4ccc(-c5ccc(-c6ccc(-c7ccc(N(c8ccc(-n9c%10ccc(C(C)(C)C)cc%10c%10cc(C(C)(C)C)ccc%109)cc8)c8ccc(-n9c%10ccc(C(C)(C)C)cc%10c%10cc(C(C)(C)C)ccc%109)cc8)cc7)s6)s5)s4)s3)cc2)c2ccc(-n3c4ccc(C(C)(C)C)cc4c4cc(C(C)(C)C)ccc43)cc2)cc1`, the emission maximum (in ClCCl) came to 529 nm.

`CCC1=C(C)C2=Cc3c4ccccc4c4n3[B-](c3ccncc3)(Oc3ccccc3-4)[N+]2=C1C` (configuration not stated): the emission maximum stood at 633 nm (in CC#N), 636 nm (in CCCCCC), 639 nm (in Cc1ccccc1) and 639 nm (in ClCCl).

For `CCN(CC)c1ccc2cc(-c3ccc(-c4ccc(-c5cc6ccccc6oc5=O)cc4)cc3)c(=O)oc2c1`, where the note is “in ClCCl”, the emission maximum is 478 nm.

With `O=c1c2ccccc2oc2cc(N3c4ccccc4C4(c5ccccc5Oc5ccccc54)c4ccccc43)ccc12`, the emission maximum (in Cc1ccccc1) is reported as 472 nm.

Turning to `Cc1ccc(S(=O)(=O)Nc2c(/C=C/c3ccccc3)sc(-c3ccc(N(C)C)cc3)c2-c2ccsc2)cc1`, the emission maximum (in CC#N) stood at 627 nm.

Turning to `O=Cc1nc2ccc(C#Cc3ccc(N(c4ccc(C#Cc5ccc6nc(C=O)sc6c5)cc4)c4ccc(C#Cc5ccc6nc(C=O)sc6c5)cc4)cc3)cc2s1`, the emission maximum (in Cc1ccccc1) was determined as 500 nm.

`O=C1[C@@H]2[C@H](C(=O)N1c1cccc3cc4ccccc4cc13)[C@H]1C[C@@H]2c2c1c(-c1ccccc1)c1ccccc1c2-c1ccccc1` yielded an emission maximum (in ClC(Cl)Cl) of 392 nm.

`COC(=O)C[C@H](NC(=O)[C@H](Cc1c[nH]c2ccccc12)NC(=O)OC(C)(C)C)C(=O)OC` displayed an emission maximum (in CC#N) of 330 nm, an emission maximum (in CCOC(C)=O) of 327 nm and an emission maximum (in CO) of 338 nm.

Turning to `CC[N+]1(CC)CN2C(=N1)C(C(=O)O)=Cc1ccc(C)cc12`, under “in O”, the emission maximum was 457 nm.

`CCC1(CC)c2cc(N(C)C)ccc2-c2ccc(C(F)(F)F)cc21`: the emission maximum is recorded as 360 nm (in C1CCCCC1); 337 nm (in CC#N); 388 nm (in CCO); 373 nm (in CCOCC); 414 nm (in CS(C)=O); 387 nm (in ClCCl). The emission maximum (in c1ccccc1) came out at 374 nm.

Turning to `N#Cc1ccc2cc(C#N)c3ccc4ccccc4c3c2c1`, under “in ClC(Cl)Cl”, the emission maximum turned out to be 420 nm.

Where the note is “in CC#N”, `CCOC(=O)c1c2c3c(ccc([N+](=O)[O-])c3c3cc4c(cc13)[Si](C)(C)O[Si]4(C)C)N(C)C2=O` showed an emission maximum of 413 nm.

Turning to `Oc1c(-c2ccco2)cccc1-c1nc2ccccc2s1`, the emission maximum by setting is: (in CCO) 575 nm; (in ClCCl) 577 nm; (in O) 569 nm.

Turning to `CC(C)(C)C#Cc1ccc2c3cccc4cccc(c5cccc1c52)c43`, the emission maximum (in C1CCCCC1) is reported as 459.88 nm.

As to `CCc1c(C)c2n(c1C)[B-](F)(F)[N+]1=C(NCc3ccc(OC)cc3)C=CC1=C2C`, the emission maximum came out at 546 nm (in CC#N); 554 nm (in CCCCCC); 549 nm (in CCOC(C)=O); 548 nm (in CO); 551 nm (in ClCCl).

`O=P1(c2ccccc2)C2=C(c3ccccc31)C(c1ccccc1)(c1ccccc1)c1cc(N(c3ccccc3)c3ccccc3)ccc12` (configuration not stated): the emission maximum is 594 nm (in CC#N), 608 nm (in CO) and 522 nm (in Cc1ccccc1).

Regarding `CN1C(=CC=Cc2nc3nc4ccccc4nc3s2)C(C)(C)c2ccccc21`, under “in CO”, the emission maximum came out at 623 nm.

For the compound `CCn1c2ccccc2c2cc(-c3cc(-c4ccc5c(c4)c4ccccc4n5CC)nc(-c4ccc(C#N)cc4)n3)ccc21`, the emission maximum (in C1CCOC1) was 408 nm; the emission maximum (in CCOC(C)=O) is on record as 408 nm; the emission maximum (in CN(C)C=O) is 422 nm; the emission maximum (in Cc1ccccc1) worked out at 388 nm; the emission maximum (in ClCCl) stood at 417 nm.

Regarding `C(#Cc1cccs1)C(C#Cc1cccs1)=Cc1ccc(C=C(C#Cc2cccs2)C#Cc2cccs2)cc1`, the emission maximum (in ClC(Cl)Cl) is 498 nm.

In the case of `O=C1/C(=C2\Sc3ccc(S(=O)(=O)Nc4ccccc4)cc3C2=O)Sc2ccc(S(=O)(=O)Nc3ccccc3)cc21`, the emission maximum was determined as 588 nm (in C1COCCO1), 604 nm (in CN(C)C=O), 618 nm (in CO) and 627 nm (in CS(C)=O).

Consider `C[N+]1=C(/C=C/C=C2/N(CCCc3ccccc3)c3ccccc3C2(C)C)C(C)(C)c2ccccc21`, for which the emission maximum (in CS(C)=O) came out at 567 nm.

Consider `O=S1(=O)C2=C(c3ccc(-c4ccc(N(c5ccccc5)c5ccccc5)cc4)cc31)C1(C3=C(c4ccccc41)S(=O)(=O)c1cc(-c4ccc(N(c5ccccc5)c5ccccc5)cc4)ccc13)c1ccccc12`, for which the emission maximum amounted to 599 nm (in C1CCOC1); 665 nm (in CC#N); 485 nm (in CCCCCC); 543 nm (in Cc1ccccc1); 624 nm (in ClCCl).

The compound `Oc1ccc2ccccc2c1/C=N/c1cc2ccccc2cc1/N=C/c1c(O)ccc2ccccc12` returned an emission maximum (in CC#N) of 509 nm.

Consider `FC(F)(F)c1c(-n2c3ccccc3c3ccccc32)c(-n2c3ccccc3c3ccccc32)cc(-n2c3ccccc3c3ccccc32)c1-n1c2ccccc2c2ccccc21`, for which, where the note is “in ClCCl”, the emission maximum was found to be 440 nm.

Turning to `C/C=C/C1=NC(=C\c2ccc(O)cc2)/C(=O)N1C`, the emission maximum by setting is: (in ClC(Cl)Cl) 472 nm; (in O) 460 nm.

On to `N#CC1=C(c2ccc(-c3cccs3)s2)CCC1`, for which the emission maximum reads like this: (in C1CCOC1) 441 nm; (in CC#N) 445 nm; (in CCCCCC) 428 nm; (in CCO) 443 nm; (in OCCOCCO) 455 nm; (in c1ccncc1) 450 nm.

Turning to `Nc1cc(N)cc(-c2nc3ccccc3s2)c1`, the emission maximum (in C1CCCCC1) stood at 410.5 nm; the emission maximum (in C1COCCO1) was 458 nm; the emission maximum (in CC#N) is on record as 482 nm; the emission maximum (in CC(C)O) came to 513 nm; the emission maximum (in CCOC(C)=O) was determined as 468 nm; the emission maximum (in CCOCC) was found to be 457 nm. The emission maximum is on record as 519 nm (in CO) and 541 nm (in O).

In the case of `CCCCCCCC(=O)Oc1ccc2c3cccc4c(OC(=O)CCCCCCC)ccc(c5cccc1c52)c43`, the emission maximum is recorded as 454.01 nm (in C1CCOC1); 456.99 nm (in Cc1ccccc1); 456.99 nm (in ClC(Cl)(Cl)Cl); 456.01 nm (in ClC(Cl)Cl); 455 nm (in ClCCl); 459.02 nm (in c1ccncc1).

In the case of `c1ccc2c(c1)Oc1ccccc1B2c1ccc(N2c3ccccc3Oc3ccccc32)cc1`, under “in Cc1ccccc1”, the emission maximum is on record as 522 nm.

On to `O=P1(c2ccccc2)C(c2ccc(C(F)(F)F)cc2)=Cc2ccccc21` (configuration not stated), for which the emission maximum (in C1CCOC1) is 414 nm.

These data come from the Deep4Chem optical property database.
